The source of these data is patent US12146889B1, “Compounds and combinations thereof for treating neurological and psychiatric conditions” (priority 2022, dated 2024).

The nature of data set [1]: pharmacokinetics in moderate renal impairment. The source says:
(§1) Data are GMRs and 90% CIs. References used are the matched healthy subjects for renal and hepatic impairment studies, and extensive or ultra-extensive CYP2D6 metabolizers respectively.

Data set [2] is described as follows: pharmacokinetics of the subject combination at steady state. The following applies: co-administered with bupropion.
A short description of data set [3]: solubility of the powder in water.
Data set [4] in a line: co-administration with strong CYP2D6 inhibitor (paroxetine).
The nature of data set [5]: effect of food on pharmacokinetics of the subject combination.
Data set [6] can be described thus: pharmacokinetics in moderate hepatic impairment. The class given is in vivo, human. The following applies: for AUC0-12 and Cmax in moderate hepatic impairment compared with healthy patients: Group 2; for AUC Change Relative to Reference (90% CI); mean ratio of AUC0-12 / Cmax Change Relative to Reference (90% CI); mean ratio of Cmax: Moderate Hepatic Impairment (Group 2), GMR vs matched healthy subjects, after 8 days of twice daily dosing, hydrobromide monohydrate.

Data set [7] in a line: pharmacokinetics in CYP2D6 poor metabolizers.
Source text: Approximately 7% to 10% of Caucasians and 3% to 8% of African Americans lack the capacity to metabolize CYP2D6 substrates and are classified as poor metabolizers.
as §1

For data set [8] the following is noted: bupropion and its metabolites; cited from earlier work.
Data set [9] concerns patients with treatment-resistant depression or MDD. Conditions: cited from earlier work.
Data set [10] has the same test system. The following applies: cited from earlier work. This is another data set of the same source.
[11] abbreviates: 7 subjects with moderate (GFR 30-60 mL/min) renal impairment vs 6 matched controls.
The mark [12] stands for this setting: patients having moderate renal impairment, tablets of Example 4.
Where [13] appears, read: 20 mg of paroxetine, tablet of Example 4 twice daily, vs tablet twice daily without paroxetine.
[14] abbreviates: 3 poor metabolizers, subject combination.
[15] abbreviates: flexible-dose study, patients ≥65 years with treatment-resistant depression, 28 to 84 mg + oral AD, N = 72.

Structures can show the parent of a compound that is named as a salt. Where two headings read alike, the source gives them in different places.

For the compound `COc1ccc2c(c1)[C@]13CCCC[C@@H]1[C@H](C2)N(C)CC3` [dextromethorphan, morphinan, 3-methoxy-17-methyl-, (9α, 13α, 14α), hydrobromide monohydrate], in [1] (setting [11]), the “increase of exposure in moderate renal impairment vs matched controls with normal renal function” value is listed as “approximately 2 fold” and the “reduction of clearance in moderate renal impairment vs matched controls” value is 50%. For the same compound, in data set [1] (setting [12]), the “increase in AUC0-12 in moderate renal impairment” value was 2.21 fold and the “increase in Cmax in moderate renal impairment” value is 2.10 fold. The “dose proportionality of changes in AUC and Cmax at steady state” value in data set [2] (varying doses of bupropion (75 to 150 mg)) is listed as “less than dose-proportional changes”. Also, the “dose proportionality of changes in AUC and Cmax at steady state” value in [2] (varying doses of dextromethorphan (30 to 60 mg)) is given as “greater than dose-proportional changes”. Further, in data set [3], the solubility in water entry is on record as “sparingly soluble in water”. In [4] (setting [13]), the “increase of AUC0-12 with concomitant paroxetine” value is 2.69 fold and the “increase of Cmax with concomitant paroxetine” value is listed as 2.38 fold. The “increase of overall exposure by paroxetine” value in data set [4] (co-administration of paroxetine and the subject combination, 29 healthy volunteers) is listed as 2.5 fold. Also, in data set [4] (in vivo), the “plasma concentrations on concomitant use of the subject combination with strong CYP2D6 inhibitor” value is reported as “increases plasma concentrations of dextromethorphan”. Also, in data set [5], the “decrease of AUC0-12 when administered with food” value is reported as 14%. In addition, in data set [6], the “AUC0-12 and Cmax in moderate hepatic impairment compared with healthy patients” value is “not significantly different”; the “AUC Change Relative to Reference (90% CI); mean ratio of AUC0-12” value stood at 1.17; the “Cmax Change Relative to Reference (90% CI); mean ratio of Cmax” value amounted to 1.21. In data set [6] (listed as DM), the “AUC Change Relative to Reference (90% CI); mean ratio of AUC0-12” value was 1.17 (0.85, 1.61) and the “Cmax Change Relative to Reference (90% CI); mean ratio of Cmax” value is on record as 1.21 (0.90, 1.62). Besides, in [7] (setting [14]), the “increase in AUC0-12 in poor metabolizers compared to extensive metabolizers” value is recorded as roughly 3.4 fold and the “increase in Cmax in poor metabolizers compared to extensive metabolizers” value is listed as roughly 3 fold. Further, the “steady state plasma concentrations in poor metabolizers vs non-poor metabolizers” value in [7] (12 poor metabolizers treated with the subject combination in efficacy trials) is “generally higher than exposures for non-poor metabolizers”. Also, the “plasma concentrations in CYP2D6 poor metabolizers compared to patients who are not CYP2D6 poor metabolizers” value in [7] (subject composition) was “increases plasma concentrations of dextromethorphan”.
Regarding `CC(NC(C)(C)C)C(=O)c1cccc(Cl)c1.Cl` (racemic) [bupropion, (±)-1-(3-chlorophenyl)-2-[(1,1-dimethylethyl)amino]-1-propanone hydrochloride], in data set [1] (human, in vivo), the “increase in AUC0-12 in moderate renal impairment” value is listed as 1.80 fold, the “increase in Cmax in moderate renal impairment” value worked out at 1.87 fold, the “increase of exposure in moderate renal impairment vs matched controls with normal renal function” value is listed as “approximately 2 fold” and the “reduction of clearance in moderate renal impairment vs matched controls” value stood at 50%. In data set [3], the solubility in water result is “highly soluble in water”. Also, the “presence in human milk” value in data set [8] is “presence of bupropion and its metabolites in human milk”. In data set [6], the “AUC0-12 and Cmax in moderate hepatic impairment compared with healthy patients” value is “not significantly different”.
Turning to `CN[C@]1(c2ccccc2Cl)CCCCC1=O` [esketamine, Esketamine], the “Incidence of Sedation (MOAA/S score <5)” value was 50% in data set [9] (fixed-dose study, patients <65 years with treatment-resistant depression, 56 mg + oral AD, N = 114); 61% in data set [9] (fixed-dose study, patients <65 years with treatment-resistant depression, 84 mg + oral AD, N = 114); 49% in data set [9] (setting [15]). The “Incidence of Dissociation (CADSS total score >4 and change >0)” value is on record as 61% in [10] (fixed-dose study, patients <65 years with treatment-resistant depression, 56 mg + oral AD, N = 113); 69% in data set [10] (fixed-dose study, patients <65 years with treatment-resistant depression, 84 mg + oral AD, N = 116); 75% in [10] (setting [15]).
